Data from ChEMBL document CHEMBL1201862, “PubChem BioAssay data set” (2004).
Calls of active or inactive are those of the source.

Legend:
[1] = target: T1, Tyrosine-protein phosphatase non-receptor type 5 (Homo sapiens, UniProt P54829); test: STEP phosphatase inhibitors, confirmation, biochemical, fluorescence intensity, uHTS hits (AID 602372); type: functional; conditions: read-out: IC50_Mean
T1 sequence (P54829 whole entry): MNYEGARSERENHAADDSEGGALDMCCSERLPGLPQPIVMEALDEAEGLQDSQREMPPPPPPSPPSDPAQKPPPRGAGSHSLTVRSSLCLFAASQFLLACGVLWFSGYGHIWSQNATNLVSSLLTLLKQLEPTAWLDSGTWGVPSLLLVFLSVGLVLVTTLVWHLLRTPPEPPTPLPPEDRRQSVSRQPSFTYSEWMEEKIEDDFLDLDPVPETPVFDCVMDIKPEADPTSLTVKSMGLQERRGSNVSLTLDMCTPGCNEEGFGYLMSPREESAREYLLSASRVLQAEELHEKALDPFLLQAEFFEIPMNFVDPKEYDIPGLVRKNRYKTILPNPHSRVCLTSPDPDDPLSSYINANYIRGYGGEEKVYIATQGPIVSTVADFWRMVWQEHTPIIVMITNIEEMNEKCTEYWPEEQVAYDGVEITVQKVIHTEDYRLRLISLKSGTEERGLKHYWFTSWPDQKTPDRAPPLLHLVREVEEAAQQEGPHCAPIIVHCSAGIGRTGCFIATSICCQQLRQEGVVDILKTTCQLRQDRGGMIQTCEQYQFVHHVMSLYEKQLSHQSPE

[2] = target: T2, Tyrosine-protein phosphatase non-receptor type 11 (Homo sapiens, UniProt Q06124); test: SHP2 phosphatase inhibition, dose response, selectivity assay for STEP inhibitor project, biochemical (AID 602367); type: functional; conditions: read-out: IC50_Mean
T2 sequence (Q06124 whole entry): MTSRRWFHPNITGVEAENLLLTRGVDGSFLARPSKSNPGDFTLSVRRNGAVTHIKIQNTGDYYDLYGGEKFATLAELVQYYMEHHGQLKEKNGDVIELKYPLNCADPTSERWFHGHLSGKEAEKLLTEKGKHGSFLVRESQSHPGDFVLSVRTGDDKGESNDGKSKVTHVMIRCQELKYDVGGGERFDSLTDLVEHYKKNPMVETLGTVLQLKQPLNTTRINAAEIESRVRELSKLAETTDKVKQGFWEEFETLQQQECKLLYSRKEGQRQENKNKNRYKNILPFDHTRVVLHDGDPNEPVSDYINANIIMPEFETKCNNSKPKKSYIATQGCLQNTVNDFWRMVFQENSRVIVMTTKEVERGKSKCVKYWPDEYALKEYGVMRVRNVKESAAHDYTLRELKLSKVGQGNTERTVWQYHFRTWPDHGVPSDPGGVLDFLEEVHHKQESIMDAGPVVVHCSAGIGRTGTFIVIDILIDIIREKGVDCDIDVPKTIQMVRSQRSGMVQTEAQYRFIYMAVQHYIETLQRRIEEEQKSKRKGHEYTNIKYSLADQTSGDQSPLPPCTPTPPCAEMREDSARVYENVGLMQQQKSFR

[3] = target: Dual specificity protein phosphatase 3 (Homo sapiens, UniProt P51452); test: VHR phosphatase inhibition, dose response, selectivity assay for STEP inhibitor project, biochemical (AID 602374); type: functional; conditions: read-out: IC50_Mean
Dual specificity protein phosphatase 3, sequence (P51452 whole entry): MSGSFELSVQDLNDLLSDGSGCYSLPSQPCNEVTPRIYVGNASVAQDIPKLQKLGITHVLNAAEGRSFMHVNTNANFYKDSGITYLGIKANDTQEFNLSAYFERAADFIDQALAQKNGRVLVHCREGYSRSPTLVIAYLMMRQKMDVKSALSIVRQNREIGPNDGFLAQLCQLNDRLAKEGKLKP

[4] = target: T3, Short transient receptor potential channel 4 (Mus musculus, UniProt Q9QUQ5); test: mouse TRPC4 channel activators, dose response, cell-based, HEK293 TRPC4/mu-opioid, Fluo-4 calcium (AID 434937); type: functional
T3 sequence (Q9QUQ5 whole entry): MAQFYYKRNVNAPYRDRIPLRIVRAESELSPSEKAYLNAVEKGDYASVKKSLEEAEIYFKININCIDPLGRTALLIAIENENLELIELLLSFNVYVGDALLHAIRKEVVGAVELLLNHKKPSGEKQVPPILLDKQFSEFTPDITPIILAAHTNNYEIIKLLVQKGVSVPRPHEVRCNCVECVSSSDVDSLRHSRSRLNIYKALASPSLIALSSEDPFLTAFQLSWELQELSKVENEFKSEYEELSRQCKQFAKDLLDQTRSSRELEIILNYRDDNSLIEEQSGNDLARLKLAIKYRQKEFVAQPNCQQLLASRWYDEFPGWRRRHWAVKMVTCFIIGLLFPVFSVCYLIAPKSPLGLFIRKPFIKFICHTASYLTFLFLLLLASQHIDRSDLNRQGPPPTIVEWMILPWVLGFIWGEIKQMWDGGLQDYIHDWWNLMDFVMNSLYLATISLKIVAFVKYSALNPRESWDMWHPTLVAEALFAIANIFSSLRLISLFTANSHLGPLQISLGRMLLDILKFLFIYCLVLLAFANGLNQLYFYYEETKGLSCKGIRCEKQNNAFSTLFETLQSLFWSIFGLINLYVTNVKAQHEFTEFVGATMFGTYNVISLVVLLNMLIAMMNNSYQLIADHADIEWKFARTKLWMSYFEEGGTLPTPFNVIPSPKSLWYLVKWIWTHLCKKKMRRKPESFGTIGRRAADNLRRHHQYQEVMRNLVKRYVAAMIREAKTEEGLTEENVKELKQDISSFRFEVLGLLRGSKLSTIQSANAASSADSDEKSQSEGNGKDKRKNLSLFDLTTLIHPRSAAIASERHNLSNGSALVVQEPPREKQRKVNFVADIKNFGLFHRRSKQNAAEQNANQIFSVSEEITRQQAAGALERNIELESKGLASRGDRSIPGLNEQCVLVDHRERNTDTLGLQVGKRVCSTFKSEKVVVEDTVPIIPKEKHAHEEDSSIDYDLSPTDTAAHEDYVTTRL

[5] = target: T4, Type-1 angiotensin II receptor (Homo sapiens, UniProt P30556); test: AT1 receptor antagonists, dose response, selectivity assay for APJ receptor antagonist project, cell-based, uHTS hits (AID 463214); type: functional;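 further: antagonist potency against angiotensin II stimulated AT1 response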
T4 sequence (P30556 whole entry): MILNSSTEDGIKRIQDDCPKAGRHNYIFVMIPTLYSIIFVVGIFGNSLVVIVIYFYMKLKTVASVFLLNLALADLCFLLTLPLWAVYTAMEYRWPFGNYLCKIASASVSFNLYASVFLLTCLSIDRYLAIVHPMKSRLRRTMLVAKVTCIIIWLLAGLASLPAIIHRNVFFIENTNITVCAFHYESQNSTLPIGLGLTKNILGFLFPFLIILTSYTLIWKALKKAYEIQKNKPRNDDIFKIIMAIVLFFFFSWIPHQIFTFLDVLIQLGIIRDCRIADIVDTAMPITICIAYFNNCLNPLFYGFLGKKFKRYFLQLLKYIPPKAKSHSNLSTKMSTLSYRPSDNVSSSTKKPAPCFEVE

[6] = target: Glucose-6-phosphate 1-dehydrogenase (Homo sapiens, UniProt P11413); test: human G6PD enzyme inhibitors, dose response, selectivity assay for P. falciparum G6PD inhibitor project, biochemical, fluorescence (AID 504792); type: functional
Glucose-6-phosphate 1-dehydrogenase, sequence (P11413 whole entry): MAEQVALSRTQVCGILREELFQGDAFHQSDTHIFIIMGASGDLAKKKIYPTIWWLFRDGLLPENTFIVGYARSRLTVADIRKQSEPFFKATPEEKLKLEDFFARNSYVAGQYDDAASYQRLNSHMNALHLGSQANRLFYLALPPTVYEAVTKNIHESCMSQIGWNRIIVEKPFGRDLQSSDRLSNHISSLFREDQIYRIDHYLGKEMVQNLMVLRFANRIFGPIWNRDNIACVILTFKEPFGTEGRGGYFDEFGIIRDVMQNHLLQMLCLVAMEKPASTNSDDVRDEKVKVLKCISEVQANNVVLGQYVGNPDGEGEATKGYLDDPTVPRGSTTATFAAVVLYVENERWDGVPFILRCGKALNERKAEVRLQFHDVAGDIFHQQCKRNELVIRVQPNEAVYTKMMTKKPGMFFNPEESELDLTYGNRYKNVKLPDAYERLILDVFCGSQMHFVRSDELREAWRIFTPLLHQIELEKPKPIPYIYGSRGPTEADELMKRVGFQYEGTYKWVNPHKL

Beta-galactosidase = Beta-galactosidase (Escherichia coli, UniProt Q8VNN2); test: PubChem AID 485352; type: functional
Beta-galactosidase, sequence (Q8VNN2 whole entry): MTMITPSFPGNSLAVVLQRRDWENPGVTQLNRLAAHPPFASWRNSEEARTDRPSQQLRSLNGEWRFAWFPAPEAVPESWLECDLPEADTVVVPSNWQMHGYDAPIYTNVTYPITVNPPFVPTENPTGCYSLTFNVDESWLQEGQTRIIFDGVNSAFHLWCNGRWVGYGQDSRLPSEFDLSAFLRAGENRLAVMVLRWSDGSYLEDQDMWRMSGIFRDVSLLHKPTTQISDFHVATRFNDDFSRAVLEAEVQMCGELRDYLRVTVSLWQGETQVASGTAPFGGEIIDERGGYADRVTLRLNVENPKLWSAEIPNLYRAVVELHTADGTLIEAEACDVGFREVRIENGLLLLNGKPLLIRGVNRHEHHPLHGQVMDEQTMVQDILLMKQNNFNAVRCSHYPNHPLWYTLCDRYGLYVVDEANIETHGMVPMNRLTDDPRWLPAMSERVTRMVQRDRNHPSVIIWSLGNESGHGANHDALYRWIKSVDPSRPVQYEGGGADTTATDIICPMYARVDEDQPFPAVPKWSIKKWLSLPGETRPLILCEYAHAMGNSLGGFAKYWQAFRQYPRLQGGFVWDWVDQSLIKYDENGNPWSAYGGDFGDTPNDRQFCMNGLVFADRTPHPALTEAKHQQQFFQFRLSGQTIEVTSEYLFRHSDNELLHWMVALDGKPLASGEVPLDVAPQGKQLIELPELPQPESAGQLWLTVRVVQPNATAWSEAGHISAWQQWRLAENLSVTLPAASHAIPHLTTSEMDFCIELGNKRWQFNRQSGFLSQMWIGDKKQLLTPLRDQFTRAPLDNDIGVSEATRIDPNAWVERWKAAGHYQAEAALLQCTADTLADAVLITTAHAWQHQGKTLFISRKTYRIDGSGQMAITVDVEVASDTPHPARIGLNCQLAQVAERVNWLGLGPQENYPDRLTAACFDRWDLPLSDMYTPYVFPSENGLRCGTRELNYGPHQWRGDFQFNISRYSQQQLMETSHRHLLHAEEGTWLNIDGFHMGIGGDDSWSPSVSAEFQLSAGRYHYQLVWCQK

[7] = target: T5, Small ubiquitin-related modifier 1 (Homo sapiens, UniProt P63165); test: inhibitors of SUMO1 peptide binding, dose response, biochemical, fluorescence polarization, uHTS hits (AID 624382); type: functional; conditions: read-out: IC50_Mean
T5 sequence (P63165 whole entry): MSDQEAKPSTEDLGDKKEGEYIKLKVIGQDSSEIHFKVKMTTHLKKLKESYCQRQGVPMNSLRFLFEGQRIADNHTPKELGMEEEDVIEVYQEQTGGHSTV

[8] = target: T5, Small ubiquitin-related modifier 1; test: inhibitors of SUMO1 partner interactions, dose response, biochemical, FRET (AID 624383); type: functional; conditions: read-out: IC50_Mean
Melanocortin receptor 4 = Melanocortin receptor 4 (Homo sapiens, UniProt P32245); type: functional, cell-based;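 further: Cell-based assay with luminescence read-out, confirmatory dose-response testing for agonist activity of biased ligands at MC4R; human U2OS cells with tagged receptor and beta-arrestin; potency of agonists that increase receptor coupling to beta-arrestin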
Melanocortin receptor 4, sequence (P32245 whole entry): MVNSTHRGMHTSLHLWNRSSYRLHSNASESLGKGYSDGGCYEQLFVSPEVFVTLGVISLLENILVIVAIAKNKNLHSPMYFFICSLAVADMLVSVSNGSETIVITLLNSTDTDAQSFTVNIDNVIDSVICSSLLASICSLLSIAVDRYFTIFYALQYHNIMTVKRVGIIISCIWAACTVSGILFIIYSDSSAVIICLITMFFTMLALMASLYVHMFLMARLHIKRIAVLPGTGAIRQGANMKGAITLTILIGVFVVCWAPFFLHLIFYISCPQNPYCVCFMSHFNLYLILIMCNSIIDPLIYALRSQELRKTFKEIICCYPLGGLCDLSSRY

cells = type: functional, cell-based; conditions: HEK-CNG
Galanin receptor type 3 = target: T6, Galanin receptor type 3 (Homo sapiens, UniProt O60755); test: Fluorescence-based cell-based primary high throughput dose response assay to identify antagonists of the Galanin Receptor 3 (GalR3).; type: functional
T6 sequence (O60755 whole entry): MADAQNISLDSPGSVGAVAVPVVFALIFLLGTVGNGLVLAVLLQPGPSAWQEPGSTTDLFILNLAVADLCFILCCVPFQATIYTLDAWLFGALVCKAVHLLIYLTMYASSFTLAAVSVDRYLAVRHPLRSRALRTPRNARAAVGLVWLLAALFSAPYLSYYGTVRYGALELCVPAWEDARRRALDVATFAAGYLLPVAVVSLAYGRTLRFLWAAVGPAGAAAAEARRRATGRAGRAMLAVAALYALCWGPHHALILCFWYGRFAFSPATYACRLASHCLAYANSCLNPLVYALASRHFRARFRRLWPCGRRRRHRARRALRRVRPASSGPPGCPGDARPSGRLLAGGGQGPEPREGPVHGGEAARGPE

[9] = Luminescence Cell-Based Dose Response HTS to Identify Activators of Luciferase Translation or Activity in H4 […] Cells. [Related pubchem assays: 1829 (Project Summary), 1814 (Primary HTS)]; type: functional
H4 = test: Luminescence Cell-Based Dose Response HTS to Identify Activators of 5'UTR Stem-Loop Driven Prion Protein mRNA Translation in H4 Neuroglioblastoma Cells. [Related pubchem assays: 1829 (Project Summary), 1814 (Primary HTS)]; type: functional; conditions: Homo sapiens
[10] = target: Dual specificity tyrosine-phosphorylation-regulated kinase 1A (Rattus norvegicus, UniProt Q63470); type: biochemical, Homo sapiens
H9c2 = test: cells; type: functional, cell-based; conditions: Rattus norvegicus, H9c2, Myocardium
[11] = IGROV1 ovarian cancer cell cytotoxicity, dose response, PAX8 inhibitor project, plate reader, dry powder samples (AID 743043); type: functional, cell-based; conditions: IGROV-1
[12] = cytotoxicity in OVCAR8 ovarian cancer cells, dose response, PAX8 project, cell-based, plate reader, dry powder samples (AID 743197); type: functional; conditions: OVCAR-8
Paired box protein Pax-8 = Paired box protein Pax-8 (Homo sapiens, UniProt Q06710); test: inhibitors of PAX8-driven TPO luciferase reporter, dose response, RMG-I cells, cherry-pick (AID 687027); type: functional, cell-based;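 further: luciferase reporter driven by Pax8 target thyroperoxidase promoter measured by SteadyGlo luminescence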
Paired box protein Pax-8, sequence (Q06710 whole entry): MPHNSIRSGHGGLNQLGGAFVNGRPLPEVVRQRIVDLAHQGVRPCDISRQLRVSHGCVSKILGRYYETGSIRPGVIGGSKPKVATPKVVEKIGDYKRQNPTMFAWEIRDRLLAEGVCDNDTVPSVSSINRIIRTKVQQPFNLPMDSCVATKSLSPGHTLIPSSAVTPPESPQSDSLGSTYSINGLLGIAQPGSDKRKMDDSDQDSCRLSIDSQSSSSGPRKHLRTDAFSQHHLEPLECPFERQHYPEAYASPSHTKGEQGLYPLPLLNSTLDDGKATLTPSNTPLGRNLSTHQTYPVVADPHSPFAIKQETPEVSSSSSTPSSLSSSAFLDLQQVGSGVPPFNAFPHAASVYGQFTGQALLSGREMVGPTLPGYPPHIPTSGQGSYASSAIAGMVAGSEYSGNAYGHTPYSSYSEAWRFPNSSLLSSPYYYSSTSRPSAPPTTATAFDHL

[13] = NIH:OVCAR-3 ovarian cancer cell cytotoxicity, dose response, PAX8 inhibitor project, plate reader, dry powder samples (AID 743044); type: functional, cell-based
[14] = target: FAD-linked sulfhydryl oxidase ALR (Homo sapiens, UniProt P55789); test: inhibitors of human ALR sulfhydryl oxidase, dose response, biochemical, H2O2 detection, luminescence, cherry-pick (AID 493248)
FAD-linked sulfhydryl oxidase ALR, sequence (P55789 whole entry): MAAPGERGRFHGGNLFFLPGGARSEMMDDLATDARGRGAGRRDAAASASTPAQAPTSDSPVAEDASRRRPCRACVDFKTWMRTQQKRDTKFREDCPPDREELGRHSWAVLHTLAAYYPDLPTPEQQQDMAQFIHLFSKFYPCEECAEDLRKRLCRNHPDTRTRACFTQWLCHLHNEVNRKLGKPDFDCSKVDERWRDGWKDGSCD

## CCOC(=O)N1CCC(N(CCN(C)C)C(=S)Nc2cc(Cl)ccc2C)CC1
[1]
  IC50: 32.2 µM (inactive)
[2]
  IC50: 11.8 µM (active)
[3]
  IC50: 2.14 µM (active)

## COc1ccc(C2NCCc3[nH]cnc32)cc1 (stereo not drawn)
[4]
  EC50: 3.35 µM (active)

## CCOC(=O)c1c(C2COc3ccccc3O2)csc1NC(=O)c1ccco1 (stereo not drawn)
[5]
  IC50: > 40 µM (not active)
[6]
  IC50: > 80 µM (inactive)
Beta-galactosidase
  EC50: > 40 µM (inactive)

## Cc1ccc(Cl)cc1N1CCN(CCN)CC1
[4]
  EC50: 0.211 µM (active)

## COc1ccc(CSCCN)cc1Cl
[4]
  EC50: 5.96 µM (active)

## Cc1ccc(S(=O)(=O)N2[C@@H](c3ccc(C(C)(C)C)cc3)C(C(=O)O)=CC[C@H]2c2ccc(Cl)c(Cl)c2)cc1
[7]
  IC50: > 66.6 µM (inactive)
[8]
  IC50: 18.8 µM (active)

## COc1ccccc1CC(=O)N1CCN(CCc2ccccc2)CC1
[4]
  EC50: 4.22 µM (active)

## CCc1ccc(C2CC(c3ccc(F)cc3)Nc3nc(N)nn32)cc1 (stereo not drawn)
Melanocortin receptor 4
  EC50: 48.1 µM (inactive)

## CCc1ccc(C(=O)NNc2ccc(C)c(Cl)c2)cc1
[5]
  IC50: 2.55 µM (active)
Beta-galactosidase
  EC50: > 40 µM (inactive)

## CCCCN(CC)CCCNC(=O)Cn1nc(Cc2cccnc2)c2ccccc2c1=O
[4]
  EC50: 1.88 µM (active)

## Cc1cc(NC(=O)Cc2ccccc2)c2ccccc2n1
cells
  EC50: > 29.9 µM (inactive)
Galanin receptor type 3
  IC50: 1.3 µM (active)

## O=C(Nc1nc2ccc([N+](=O)[O-])cc2s1)C1CCCO1 (stereo not drawn)
[9]
  EC50: 0.224 µM (active)
H4
  EC50: > 120 µM (not active)
[10]
  AC50: 0.577 µM (active)

## COc1ccc2c(Cl)c(C(=O)NCc3ccco3)sc2c1
[10]
  AC50: 0.273 µM (active)

## CC(=O)Nc1cc(-c2ccccc2)cn2c(-c3cccc(C(C)=O)c3)cnc12
H9c2
  IC50: > 79 µM (inactive)
Melanocortin receptor 4
  EC50: > 89.2 µM (inactive)

## O=C(O)C1=CCC=CC1C(=O)O (stereo not drawn)
[7]
  IC50: > 66.6 µM (inactive)
[8]
  IC50: 5.69 µM (active)

## CC(=O)Nc1cc(-c2ccc(S(C)(=O)=O)cc2)cn2c(-c3ccc(F)c(Cl)c3)cnc12
Melanocortin receptor 4
  EC50: > 89.2 µM (inactive)

## COc1cccc(NC(=S)N/N=C2\CC3CCC2(C)C3(C)C)c1 (stereo not drawn)
[5]
  IC50: 27.4 µM (not active)
Beta-galactosidase
  EC50: > 40 µM (inactive)

## Cc1ccc(S(=O)(=O)N2CC[C@@H]3[C@H](CO)N(C)c4ccc(-c5ccc(C#N)cc5)cc4[C@@H]32)cc1
[11]
  AC50: 28.6 µM (active)
[12]
  AC50: 48.4 µM (active)
Paired box protein Pax-8
  AC50: 7.55 µM (active)

## C[C@@H]1CCCCO[C@@H](CN(C)Cc2ccc(C(F)(F)F)cc2)[C@@H](C)CN([C@@H](C)CO)C(=O)c2cc(NS(=O)(=O)c3ccc(Cl)cc3)ccc2O1
[13]
  AC50: 27.4 µM (active)
[11]
  AC50: 53.5 µM (active)
[12]
  AC50: 43.7 µM (active)
Paired box protein Pax-8
  AC50: 7.31 µM (active)

## CN(C)/C=N/c1nc(-c2ccc3c(c2)OCO3)cs1
[14]
  AC50: 10.9 µM (active)
[10]
  AC50: 3.64 µM (active)
